pIC50: −log10 of the molar value. Counter-ions that a name gives are not always drawn.

The target of this assay is T1, recombinant human baculovirus-expressed GST-tagged FASN (Homo sapiens, UniProt P49327).
T1 construct: GST
T1 sequence (P49327 whole entry): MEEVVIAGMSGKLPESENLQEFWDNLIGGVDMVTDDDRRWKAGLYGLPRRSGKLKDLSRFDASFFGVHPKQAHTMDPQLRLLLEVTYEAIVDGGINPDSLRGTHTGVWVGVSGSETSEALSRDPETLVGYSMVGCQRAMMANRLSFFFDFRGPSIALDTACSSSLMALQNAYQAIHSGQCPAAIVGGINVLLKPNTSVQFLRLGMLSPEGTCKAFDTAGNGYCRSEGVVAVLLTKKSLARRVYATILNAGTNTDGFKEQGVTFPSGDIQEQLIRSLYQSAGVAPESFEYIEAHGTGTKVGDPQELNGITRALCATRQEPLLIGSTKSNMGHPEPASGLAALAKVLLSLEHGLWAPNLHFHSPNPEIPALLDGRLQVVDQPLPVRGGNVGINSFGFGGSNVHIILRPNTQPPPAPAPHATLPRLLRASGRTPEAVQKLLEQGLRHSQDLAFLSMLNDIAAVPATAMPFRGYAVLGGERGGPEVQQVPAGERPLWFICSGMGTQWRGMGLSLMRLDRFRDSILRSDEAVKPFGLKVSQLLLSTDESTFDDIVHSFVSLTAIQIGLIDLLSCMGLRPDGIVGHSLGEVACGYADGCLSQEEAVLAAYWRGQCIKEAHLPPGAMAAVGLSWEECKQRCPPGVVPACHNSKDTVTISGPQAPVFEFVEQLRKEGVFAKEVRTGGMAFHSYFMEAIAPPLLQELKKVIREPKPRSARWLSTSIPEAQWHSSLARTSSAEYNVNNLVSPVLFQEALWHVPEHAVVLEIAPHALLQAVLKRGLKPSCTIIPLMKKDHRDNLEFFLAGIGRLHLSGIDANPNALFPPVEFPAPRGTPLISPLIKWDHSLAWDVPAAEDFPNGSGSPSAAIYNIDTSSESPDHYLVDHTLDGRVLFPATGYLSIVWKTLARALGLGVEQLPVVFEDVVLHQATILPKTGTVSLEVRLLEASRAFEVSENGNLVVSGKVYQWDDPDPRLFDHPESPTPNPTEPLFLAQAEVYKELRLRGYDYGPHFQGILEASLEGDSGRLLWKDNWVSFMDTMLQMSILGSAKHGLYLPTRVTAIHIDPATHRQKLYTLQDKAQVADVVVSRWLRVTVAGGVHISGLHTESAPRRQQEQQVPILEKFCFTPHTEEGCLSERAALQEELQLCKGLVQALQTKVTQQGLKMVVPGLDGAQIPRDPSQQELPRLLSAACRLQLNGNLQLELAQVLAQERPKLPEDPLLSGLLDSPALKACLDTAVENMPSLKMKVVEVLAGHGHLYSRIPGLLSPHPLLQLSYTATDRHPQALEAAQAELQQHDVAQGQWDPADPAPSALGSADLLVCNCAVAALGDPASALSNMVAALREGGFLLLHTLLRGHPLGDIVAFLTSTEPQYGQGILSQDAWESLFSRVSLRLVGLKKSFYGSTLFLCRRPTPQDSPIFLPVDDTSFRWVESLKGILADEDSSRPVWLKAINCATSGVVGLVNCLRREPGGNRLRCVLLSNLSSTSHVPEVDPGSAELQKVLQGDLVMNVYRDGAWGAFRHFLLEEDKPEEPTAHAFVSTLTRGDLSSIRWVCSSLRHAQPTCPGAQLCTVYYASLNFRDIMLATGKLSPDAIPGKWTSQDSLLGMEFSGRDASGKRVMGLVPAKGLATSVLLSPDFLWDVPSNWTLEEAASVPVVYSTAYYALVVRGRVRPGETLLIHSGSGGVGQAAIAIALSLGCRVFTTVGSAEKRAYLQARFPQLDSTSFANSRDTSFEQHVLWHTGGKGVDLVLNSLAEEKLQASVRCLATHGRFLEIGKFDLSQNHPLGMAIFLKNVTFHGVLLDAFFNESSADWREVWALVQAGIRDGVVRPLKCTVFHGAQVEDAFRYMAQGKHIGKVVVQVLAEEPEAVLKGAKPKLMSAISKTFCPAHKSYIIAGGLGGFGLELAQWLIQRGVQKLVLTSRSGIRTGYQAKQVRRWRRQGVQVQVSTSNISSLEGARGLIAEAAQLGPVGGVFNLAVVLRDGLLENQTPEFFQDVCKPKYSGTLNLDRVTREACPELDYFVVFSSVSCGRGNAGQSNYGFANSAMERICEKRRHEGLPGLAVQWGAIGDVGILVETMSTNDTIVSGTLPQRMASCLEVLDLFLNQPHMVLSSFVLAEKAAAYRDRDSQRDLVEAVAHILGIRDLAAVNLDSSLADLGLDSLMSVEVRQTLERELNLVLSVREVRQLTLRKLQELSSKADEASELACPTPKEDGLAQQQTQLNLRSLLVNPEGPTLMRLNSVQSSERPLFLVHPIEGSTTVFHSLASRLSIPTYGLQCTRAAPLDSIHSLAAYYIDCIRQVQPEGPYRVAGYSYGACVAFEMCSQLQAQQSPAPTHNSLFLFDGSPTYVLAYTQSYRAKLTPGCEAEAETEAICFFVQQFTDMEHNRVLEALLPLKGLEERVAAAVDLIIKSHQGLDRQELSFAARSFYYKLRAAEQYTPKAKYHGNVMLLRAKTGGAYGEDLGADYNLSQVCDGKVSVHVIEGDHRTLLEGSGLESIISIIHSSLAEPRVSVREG
As to the kind of experiment: FASN enzyme activity assay, fluorescence-based detection of CoA with CPM. The class given is biochemical. As to conditions: 5 nM FASN, 150 μM NADPH, 10 μM acetyl-CoA, 25 μM malonyl-CoA, 90 minutes incubation; read-out: IC50 data for Compounds of Formulae I-V/V(a): Activity. The method, boiled down: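 CoA product reacted with thiol-reactive CPM (diluted to 50 μM in 70% ethanol), read at 390/530 nm after 30 min. Preceding reaction: 90 min, 5 nM recombinant GST-FASN, 150 μM NADPH, 10 μM acetyl-CoA, 25 μM malonyl-CoA, pH 7.5 HEPES, 0.5% DMSO. IC50s fitted by nonlinear sigmoidal regression.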
Regarding `Cc1cc(C)c(C(=O)N2CCC(Oc3ccc(-c4cnc5ccccc5c4)cc3)CC2)o1` [Example 122, (3,5-Dimethylfuran-2-yl)-[4-(4-quinolin-3-yl-phenoxy)-piperidin-1-yl]-methanone, HCl], the pIC50 is 5.00 to 6.00.
The value for `O=C(c1ncco1)N1CCC(Oc2ccc(-c3cnc4ccccc4c3)cc2)CC1` [Example 123, Oxazol-2-yl-[4-(4-quinolin-3-yl-phenoxy)-piperidin-1-yl]-methanone; HCl] was 5.00 to 6.00; that for `O=C(c1ccon1)N1CCC(Oc2ccc(-c3cnc4ccccc4c3)cc2)CC1` [Example 124, Isoxazol-3-yl-[4-(4-quinolin-3-yl-phenoxy)-piperidin-1-yl]-methanone, HCl] was 5.00 to 6.00.
With `O=C(c1ccsn1)N1CCC(Oc2ccc(-c3cnc4ccccc4c3)cc2)CC1` [Example 125, Isothiazol-3-yl-[4-(4-quinolin-3-yl-phenoxy)-piperidin-1-yl]-methanone, HCl], the pIC50 is 5.00 to 6.00.
The value for `O=C(C1CCCO1)N1CCC(Oc2ccc(-c3cnc4ccccc4c3)cc2)CC1` (centres unmarked) [Example 126, [4-(4-Quinolin-3-yl-phenoxy)-piperidin-1-yl]-(tetrahydrofuran-2-yl)-methanone, HCl] was 7.00 to 9.00.
As to `O=C(c1ccccc1)N1CCC(Oc2ccc(-c3cnc4ccccc4c3)cc2)CC1` [Example 127, Phenyl-[4-(4-quinolin-3-yl-phenoxy)-piperidin-1-yl]-methanone, HCl], the pIC50 was 5.00 to 6.00.
With `Cc1ccc(C)c(C(=O)N2CCC(Oc3ccc(-c4cnc5ccccc5c4)cc3)CC2)c1` [Example 128, (2,5-Dimethylphenyl)-[4-(4-quinolin-3-yl-phenoxy)-piperidin-1-yl]-methanone, HCl], the pIC50 was 5.00 to 6.00.
The value for `O=C(c1cccc(-c2ncc[nH]2)c1)N1CCC(Oc2ccc(-c3cnc4ccccc4c3)cc2)CC1` [Example 129, [3-(1H-Imidazol-2-yl)-phenyl]-[4-(4-quinolin-3-yl-phenoxy)-piperidin-1-yl]-methanone, HCl] was 5.00 to 6.00; that for `O=C(c1cccc(-c2nc3ccccc3[nH]2)c1)N1CCC(Oc2ccc(-c3cnc4ccccc4c3)cc2)CC1` [Example 130, [3-(1H-Benzimidazol-2-yl)-phenyl]-[4-(4-quinolin-3-yl-phenoxy)-piperidin-1-yl]-methanone, HCl] was 5.00 to 6.00.
The value for `CONC(=O)N1CCC(Oc2ccc(-c3ccc4cccnc4c3OC)cc2)CC1` [Example 131, N-Methoxy-4-[4-(8-methoxy-7-quinolyl)phenoxy]piperidine-1-carboxamide, HCl] was 7.00 to 9.00.
The same measure for `CCC(=O)N1CCC(Oc2ccc(-c3cnc4ccccc4c3)cn2)CC1` [Example 132, 1-[4-(5-Quinolin-3-yl-pyridin-2-yloxy)-piperidin-1-yl]-propan-1-one, HCl]: 5.00 to 6.00.
Turning to `CC(C)C(=O)N1CCC(Oc2ccc(-c3cnc4ccccc4c3)cn2)CC1` [Example 133, 2-Methyl-1-[4-(5-quinolin-3-yl-pyridin-2-yloxy)-piperidin-1-yl]-propan-1-one, HCl], the pIC50 was 5.00 to 6.00.
As to `O=C(C1CC1)N1CCC(Oc2ccc(-c3cnc4ccccc4c3)cn2)CC1` [Example 134, Cyclopropyl-[4-(5-quinolin-3-yl-pyridin-2-yloxy)-piperidin-1-yl]-methanone, HCl], the pIC50 was 5.00 to 6.00.
With `CCC(=O)N1CCC(Oc2ccc(-c3ccc4cccnc4c3)cn2)CC1` [Example 135, 1-[4-(5-Quinolin-7-yl-pyridin-2-yloxy)-piperidin-1-yl]-propan-1-one, HCl], the pIC50 was 6.00 to 7.00.
The same measure for `CC(C)C(=O)N1CCC(Oc2ccc(-c3ccc4cccnc4c3)cn2)CC1` [Example 136, 2-Methyl-1-[4-(5-quinolin-7-yl-pyridin-2-yloxy)-piperidin-1-yl]-propan-1-one, HCl]: 5.00 to 6.00.
Take `O=C(C1CC1)N1CCC(Oc2ccc(-c3ccc4cccnc4c3)cn2)CC1` [Example 137, Cyclopropyl-[4-(5-quinolin-7-yl-pyridin-2-yloxy)-piperidin-1-yl]-methanone, HCl]: the pIC50 is 6.00 to 7.00.
The value for `CC(C)C(=O)N1CCC(Oc2ncc(-c3cnc4ccccc4c3)cn2)CC1` [Example 138, 2-Methyl-1-[4-(5-quinolin-3-yl-pyrimidin-2-yloxy)-piperidin-1-yl]-propan-1-one, 2HCl] was 5.00 to 6.00; that for `O=C(C1CC1)N1CCC(Oc2ncc(-c3cnc4ccccc4c3)cn2)CC1` [Example 139, Cyclopropyl-[4-(5-quinolin-3-yl-pyrimidin-2-yloxy)-piperidin-1-yl]-methanone, 2HCl] was 5.00 to 6.00; that for `CCC(=O)N1CCC(Oc2ccc(-c3cnc4ccccc4c3)nc2)CC1` [Example 140, 1-[4-(6-Quinolin-3-yl-pyridin-3-yloxy)-piperidin-1-yl]-propan-1-one, 2HCl] was 5.00 to 6.00.
The same measure for `CC(C)C(=O)N1CCC(Oc2ccc(-c3cnc4ccccc4c3)nc2)CC1` [Example 141, 2-Methyl-1-[4-(6-quinolin-3-yl-pyridin-3-yloxy)-piperidin-1-yl]-propan-1-one, 2HCl]: 5.00 to 6.00.
The same measure for `O=C(C1CC1)N1CCC(Oc2ccc(-c3cnc4ccccc4c3)nc2)CC1` [Example 142, Cyclopropyl-[4-(6-quinolin-3-yl-pyridin-3-yloxy)-piperidin-1-yl]-methanone, 2HCl]: 5.00 to 6.00.
As for `CCC(=O)N1CCC(Oc2ccc(-c3ccc4cccnc4c3)nc2)CC1` [Example 144, 1-[4-(6-Quinolin-7-yl-pyridin-3-yloxy)-piperidin-1-yl]-propan-1-one, 2HCl], the pIC50 was 5.00 to 6.00.
The same measure for `CC(C)C(=O)N1CCC(Oc2ccc(-c3ccc4cccnc4c3)nc2)CC1` [Example 145, 2-Methyl-1-[4-(6-quinolin-7-yl-pyridin-3-yloxy)-piperidin-1-yl]-propan-1-one, 2HCl]: 5.00 to 6.00; for `O=C(C1CC1)N1CCC(Oc2ccc(-c3ccc4cccnc4c3)nc2)CC1` [Example 146, Cyclopropyl-[4-(6-quinolin-7-yl-pyridin-3-yloxy)-piperidin-1-yl]-methanone, 2HCl]: 5.00 to 6.00; for `CCC(=O)N1CCC(Oc2ccc(-c3ccc4cnccc4c3)nc2)CC1` [Example 147, 1-[4-(6-Isoquinolin-6-yl-pyridin-3-yloxy)-piperidin-1-yl]-propan-1-one, 2HCl]: 5.00 to 6.00.
Take `CC(C)C(=O)N1CCC(Oc2ccc(-c3ccc4cnccc4c3)nc2)CC1` [Example 148, 1-[4-(6-Isoquinolin-6-yl-pyridin-3-yloxy)-piperidin-1-yl]-2-methyl-propan-1-one, 2HCl]: the pIC50 was 5.00 to 6.00.
The same measure for `O=C(C1CC1)N1CCC(Oc2ccc(-c3ccc4cnccc4c3)nc2)CC1` [Example 149, Cyclopropyl-[4-(6-isoquinolin-6-yl-pyridin-3-yloxy)-piperidin-1-yl]-methanone, 2HCl]: 5.00 to 6.00; for `CCC(=O)N1CCC(C(=O)N(C)c2ccc(-c3ccc4cccnc4c3)cc2)CC1` [Example 150, 1-Propionyl-piperidine-4-carboxylic acid methyl-(4-quinolin-7-yl-phenyl)-amide]: 6.00 to 7.00.
The value for `CCC(=O)N1CCC(C(=O)N(C)c2ccc(-c3ccc4cnccc4c3)cc2)CC1` [Example 151, 1-Propionyl-piperidine-4-carboxylic acid (4-isoquinolin-6-yl-phenyl)-methylamide] was 6.00 to 7.00.
